# Laboratory results published in patent US20160375155A1, “Collagen Imaging Compositions” (Collagen Medical, LLC, priority 2015, published 2016).
# Where two headings read alike, the source gives them in different places.
# Tests used:
# myocardial collagen = details: rat MI model, healthy and infarcted heart
# Protocol: Myocardial infarction was induced in Sprague Dawley rats by occlusion of the left anterior descending coronary artery followed by reperfusion. The rats were anesthetized with an intraperitoneal (i.p.) injection of 100 μg pentobarbital sodium per gram body weight and a thorocotamy was performed. The pericardium was removed and the left anterior artery was sutured with a 7.0 silk suture for 60 minutes after which reperfusion was established.
# Animals were sacrificed at 60 minutes post-injection and the heart removed and sectioned for analysis.
# The slope for this correlation is a measure of efficacy.
# [1] = Relaxivity in PBS (Bruker mq60, 60 MHz); type: physicochemical; details: pH 7.4 PBS at 1.4 T, 37° C.
# Protocol: The relaxivity of Compound ID Nos. 1, 2 and 4 were determined in PBS at 37° C. using a Bruker mq60 spectrometer operating at 60 MHz (1.4 tesla). Samples were equilibrated at concentrations ranging from 0-200 μM for at least 30 minutes at 37° C. T1 was measured using an inversion recovery sequence. Relaxivities were calculated by subtracting the relaxation rate of the buffer […] and then dividing the result by the concentration of Compound.
# [2] = test system: acute and chronic myocardial infarct (fibrosis); type: in vivo, canine; details: for CNR between infarct and blood: Compound ID No. 1 0.0075 mmol/kg, extracellular gadolinium 0.2 mmol/kg
# Text: An experimental protocol was developed to test the ability of Compound ID No. 1 to differentiate acute from chronic myocardial infarction in an in-vivo large animal (canine) model. In this model, early following acute myocardial infarction, pathologic fibrosis has not fully developed within the infarct zone (fibrosis-poor), whereas in chronic MI (˜8 weeks following MI), dense fibrosis fully replaced necrotic myocardium (fibrosis-rich).
# In the myocardial fibrosis canine model, a vascular occluder was placed surgically around the left anterior descending coronary artery (LAD) to allow occlusion and reperfusion. Two animals were studied following acute MI and two additional animals were studied both following acute MI, and chronically at 8 weeks. The LAD vessel was completely occluded for 70-90 minutes and then released to allow reperfusion. The chest was sutured closed, and the animal was allowed to recover. Imaging was performed on a 3 T clinical scanner in an acute (<1 week, minimal fibrosis expected in acute necrosis) and chronic (8 weeks, healing complete, necrotic myocardium replaced by dense collagenous scar) time point after infarction. For each time point, the animals undergo 2 scans separated by 48 hours with conventional gadolinium contrast (0.2 mmol/kg GdDTPA) and Compound ID No. 1 (0.0075 mmol/kg).
# Imaging was performed on a 3 T clinical scanner (Siemens Verio). Breath holding was achieved by temporarily turning off the animal ventilator, and all images were ECG gated. Standard short and long axis cine imaging was performed throughout the left ventricle to identify left ventricular function and regional wall motion abnormalities. Delayed enhancement imaging (segmented 2D inversion recovery gradient echo) was performed prior to and serially following Compound ID No. 1 administration. Two strategies were employed: (1) a fixed inversion time was chosen to null pre-contrast myocardium (TI˜650 ms), and (2) a variable inversion time set to null post-contrast myocardium as is performed in traditional delayed enhancement imaging.
# After imaging, animals were euthanized and post mortem analysis of myocardium was performed. Tissue was assessed grossly by histopathologic staining with triphenyltetrazolium chloride for myocardial infarction, and microscopically with Masson's trichrome staining for fibrosis. Additionally quantitative tissue analysis for hydroxyproline was used to measure total collagen content in tissue and compared to tissue gadolinium concentration by inductively coupled plasma-mass spectrometry. MR data was analyzed quantitatively for conspicuity of infarction and image quality as well as contrast to noise ratio (CNR) for infarct-normal myocardium and infarct-blood.
# [3] = biological target: Native canine Collagen Type I and III protein; experiment: Collagen binding assay, dried dog collagen plate; details: 37° C., pH 7.4; collagen 5 μM; fit to 1 binding site
# Protocol: Canine collagen (Native canine Collagen Type I and III protein, YO protein AB, cat#739) is dissolved in 0.5 M acetic acid at 3.3 mg/ml by vortexing and shaking overnight at 4° C. The solution is then dialyzed against 10 mM Phosphate (NaH2PO4), pH 4.2 at 4° C. with three changes of the dialysis buffer.
# Ice-cold 1×PBS pH 10.8 is added to the collagen solution for a final collagen concentration of 10 μM, pH 7.4. Collagen solutions are gelled and dried down in the wells of a 96 well microtiter plate (Corning Polystyrene Flat Bottom, cat#3641). 70 μl of 10 μM collagen is aliquoted into each well in every other lane in the plate (48 wells) and the plate is incubated at 37° C. for 18 hours to form a gel and evaporate to dryness. Ungelled collagen is removed by washing the collagen films with 200 μl 1×PBS pH 7.4 (four times, 15 min per wash). The thin collagen fibril film remains, coating the bottom of each well. After washing by PBS the plate is again dried at 37° C. for 2 hours and is stored at −20° C. The final well content of gelled collagen is measured by determination of hydroxyproline and is around 180 μg/ml.
# a serial dilution of 0.2 μM-30 μM of the peptide chelate is prepared in PBS, pH 7.4 (˜300 μL of solution for each concentration). 90 μl of each concentration is also reserved in a HPLC glass vial as a sample to measure the total concentration. 140 μL of each dilution of peptide chelate is added to wells containing and non-containing collagen (control for nonspecific plastic binging). The plate is then incubated on a shaker table (300 rpm) for 2 hours at room temperature to allow the compound to bind. […] The concentration of free, unbound compound in the sample supernatants and the concentration of compound in the reserved (total) sample are determined by ICP-MS (Agilent 7500, gadolinium concentration). The concentration of compound bound to collagen is determined as [bound]=[total]−[unbound].
# The binding of compounds to human, rat and dog collagen (5 μM) was measured over the concentration range 0.2-5 μM of Comp ID Nos.: 1-4. […]
# [4] = Pharmacokinetics (rat), plasma gadolinium by ICP-MS; type: in vivo, Sprague Dawley rats; details: 1.3 umol/kg iv bolus in 80 mM sucrose, pH 7, 2-90 minutes
# Protocol: Compound ID No. 1 was formulated at pH 7 in 80 mM sucrose and administered to Sprague Dawley rats (n=2) at dose of 1.3 umol/kg using a bolus IV injection. Plasma was sampled at 2, 5, 15, 30, and 90 minutes post-injection and analyzed for gadolinium content using ICP-MS (FIG. 15).
# fibrotic liver tissue = experiment: Uptake into fibrotic liver tissue, bile duct ligated (BDL) rats; type: in vivo, Sprague-Dawley rats; details: BDL rats vs sham, ~7.5 μmol/kg, 90 min
# Protocol: Bile duct ligated (BDL) rats are selected to assess the uptake of the complexes in fibrotic liver tissue as compared to sham operated animals. In this model, the common bile duct is surgically tied off and the resultant cholestosis results in fibrosis around the bile ducts. Laparotomy is performed in Sprague-Dawley rats with double ligation of the common bile duct with a section between the two ligatures (2-3% isoflurane anesthesia). […] Fibrosis is evident 15 days after ligation and increases with time up to 30 days after ligation, providing defined endpoints for imaging of moderate and severe fibrosis. Studies are conducted by injecting Compound ID. No. 1 at a dose ˜7.5 μmol/kg. After 90 min, the animals are sacrificed and the 4 liver lobes and abdominal muscle are removed and the gadolinium concentration quantified by ICP-MS and collagen content quantified using hydroxyproline concentration.
compound,measurement,setting,value
CC(C)C[C@H](NC(=O)[C@@H]1CSSC[C@H](NC(=O)[C@H](Cc2c[nH]cn2)NC(=O)[C@H](Cc2c[nH]c3ccccc23)NC(=O)[C@H](CCCCNC(=O)CC[C@H](C(=O)O)N2CCN(CC(=O)O)CCN(CC(=O)O)CCN(CC(=O)O)CC2)NC(=O)CNC(=O)CC[C@H](C(=O)O)N2CCN(CC(=O)O)CCN(CC(=O)O)CCN(CC(=O)O)CC2)C(=O)N[C@@H]([C@@H](C)O)C(=O)N[C@@H]([C@@H](C)O)C(=O)N[C@@H](CCCCNC(=O)CC[C@H](C(=O)O)N2CCN(CC(=O)O)CCN(CC(=O)O)CCN(CC(=O)O)CC2)C(=O)N[C@@H](Cc2ccccc2)C(=O)N2CCC[C@H]2C(=O)N[C@@H](Cc2c[nH]cn2)C(=O)N[C@@H](Cc2c[nH]cn2)C(=O)N[C@@H](Cc2ccc(O)cc2)C(=O)N1)C(=O)N[C@@H](Cc1ccc(O)cc1)C(=O)N[C@@H](Cc1ccc(-c2ccccc2)cc1)C(N)=O [Compound ID No. 1],"calculated slope, hydroxyproline vs. gadolinium concentration",myocardial collagen,8498
same,R1 (relaxivity),[1],43.4 mM⁻¹ s⁻¹
same,CNR between infarct and blood,[2]; acute MI,19±7.4
same,T1 of infarct vs normal myocardium,"[2]; acute myocardial infarction, FIG. 24a",longer than normal (N1) myocardium
same,MR image enhancement of infarct over time,"[2]; acute myocardial infarction, FIG. 25a","lack of contrast early, equilibration with normal myocardium at 30 minutes, and enhancement >1 hr"
same,relationship of compound concentration (gadolinium) vs. collagen concentration (hydroxyproline),"[2]; canine heart tissue, FIG. 26",linear relationship
same,CNR between infarct and blood,[2]; chronic MI (8 weeks),11±2
same,extent of the enhanced area,"[2]; chronic infarct, compared with Gd delayed enhancement",matched that of Gd delayed enhancement
same,T1 of infarct vs normal myocardium,"[2]; chronic myocardial infarction, FIG. 24b",lower T1 than normal myocardium throughout the entire experiment
same,T1 of infarct vs normal myocardium,"[2]; chronic myocardial infarction, FIG. 24b, listed as Compound ID. No. 1",early and persistent lowering of T1 values
same,Kd,[3],4.4 µM
same,pharmacokinetic profile (plasma gadolinium),[4],rapid initial blood clearance
same,uptake into fibrotic liver tissue,fibrotic liver tissue,consistent with uptake of Compound ID No. 1 into fibrotic-rich liver tissue
